Experimental data: US20250059174A1, “Pharmaceutical Compounds and Compositions as C-Kit Kinase Inhibitors” (Enanta Pharmaceuticals, Inc., priority 2023, published 2025)

Key:
M-07e cells = test: M-07e cellular assay (SCF-mediated cell proliferation); assay type: cell-based; conditions: Homo sapiens, 72 hours, CellTiter Glo
Outline: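 EC50 values reflect inhibition of SCF-driven proliferation, with SCF at EC90 and a 72 h compound exposure, measured as CellTiter Glo luminescence. Growth is scaled between no-SCF (0%) and untreated (100%) wells.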

[1] = molecular target: Recombinant human c-KIT kinase (Homo sapiens (Human), UniProt P10721); test: c-KIT kinase chemiluminescence assay (ADP-Glo); assay type: biochemical; conditions: ATP 50 μM
Outline: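 Recombinant human c-KIT preincubated 30 min at RT in 40 mM Tris pH 7.5, 20 mM MgCl2, 0.1 mg/mL BSA, 50 μM DTT, then reacted 2 h at RT with ATP and polyEY substrate. ADP-Glo luminescence readout; activity normalized to high/low controls, IC50 and Hill coefficient from inhibitor-versus-normalized-response fit.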

Sequence of Recombinant human c-KIT kinase (P10721 26-976): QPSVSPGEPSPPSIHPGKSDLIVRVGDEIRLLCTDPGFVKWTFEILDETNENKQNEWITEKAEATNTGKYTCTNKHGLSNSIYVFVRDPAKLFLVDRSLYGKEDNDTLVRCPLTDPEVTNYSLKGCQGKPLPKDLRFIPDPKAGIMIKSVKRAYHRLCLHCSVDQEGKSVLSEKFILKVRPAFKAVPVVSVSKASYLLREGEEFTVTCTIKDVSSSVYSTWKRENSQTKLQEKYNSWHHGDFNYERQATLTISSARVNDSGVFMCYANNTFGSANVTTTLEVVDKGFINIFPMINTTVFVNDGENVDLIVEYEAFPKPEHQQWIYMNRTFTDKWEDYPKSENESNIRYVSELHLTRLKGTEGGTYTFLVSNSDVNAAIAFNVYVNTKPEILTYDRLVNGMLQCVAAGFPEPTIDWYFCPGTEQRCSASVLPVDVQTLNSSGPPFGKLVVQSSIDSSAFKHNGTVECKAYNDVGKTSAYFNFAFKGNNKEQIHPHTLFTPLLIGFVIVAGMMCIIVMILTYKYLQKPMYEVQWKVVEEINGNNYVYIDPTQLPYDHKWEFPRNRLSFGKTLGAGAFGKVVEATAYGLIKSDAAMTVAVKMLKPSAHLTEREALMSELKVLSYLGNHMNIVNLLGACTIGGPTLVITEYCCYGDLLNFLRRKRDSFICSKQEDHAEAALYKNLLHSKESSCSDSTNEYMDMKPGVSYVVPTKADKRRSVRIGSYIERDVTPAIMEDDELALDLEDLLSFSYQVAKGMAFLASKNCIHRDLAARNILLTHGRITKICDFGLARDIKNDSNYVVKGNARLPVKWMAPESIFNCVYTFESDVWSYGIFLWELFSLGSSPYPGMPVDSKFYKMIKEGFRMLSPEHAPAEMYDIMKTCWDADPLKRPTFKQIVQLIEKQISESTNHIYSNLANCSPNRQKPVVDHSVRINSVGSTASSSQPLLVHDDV

| Structure (SMILES) | EC50 (M-07e cells) [nM] | IC50 [1] [nM] |
| --- | --- | --- |
| Cc1ccc(-c2noc([C@H]3C[C@@H]3F)n2)cc1NC(=O)c1cnc(-c2ccc3c(c2)NCCO3)o1 [Example 308-36] | < 100 | < 100 |
| Cc1ccc(-c2noc([C@H]3C[C@@H]3F)n2)cc1NC(=O)c1cnn2ccc(O[C@H]3CCOC3)cc12 [Example 221] | 100 to 1000 | < 100 |
| Cc1ccc(-c2noc([C@H]3C[C@@H]3F)n2)cc1NC(=O)c1cnn2ccc(N3CC(COCc4ccccc4)(C(=O)OCc4ccccc4)C3)cc12 [Example 241-13] | > 1000 | > 1000 |
| Cc1ccc(-c2noc(C3CN(C(=O)C4CC4)C3)n2)cc1NC(=O)c1cnn2ccc(N3CC4(COC4)C3)cc12 [Example 281-46] | 100 to 1000 | 100 to 1000 |
| Cc1ccc(-c2noc([C@H]3C[C@@H]3F)n2)cc1NC(=O)c1cnn2cc(-c3cn(C[C@H](C)O)nn3)ccc12 [Example 117] | < 100 | < 100 |
| Cc1ccc(-c2noc([C@H]3C[C@@H](OC(F)(F)F)C3)n2)cc1NC(=O)c1cnn2ccc(N3CC4(CCN(CC(F)(F)F)C4)C3)cc12 [Example 252] | 100 to 1000 | 100 to 1000 |
| Cc1ccc(-c2noc([C@H]3C[C@@H]3F)n2)cc1NC(=O)c1ccc2[nH]c(=O)[nH]c2c1 [Example 98-7] | > 1000 | > 1000 |
| Cc1ccc(-c2noc([C@H]3C[C@@H]3F)n2)cc1NC(=O)c1cnn2ccc(N3C[C@H]4C[C@@H]3CO4)cc12 [Example 199] | < 100 | < 100 |
| O=C(Nc1cc(-c2noc(N3CC(O)(C(F)(F)F)C3)n2)ccc1Cl)c1cnn2ccc(N3CC4(COC4)C3)cc12 [Example 281-123] | < 100 | < 100 |
| Cc1ccc(-c2noc([C@H]3C[C@@H]3F)n2)cc1NC(=O)c1cnn2ccc(N3CC(F)(F)C3)cc12 [Example 222] | 100 to 1000 | < 100 |
| COC12CC(c3nc(-c4ccc(C)c(NC(=O)c5cnn6ccc(N7CC8(COC8)C7)cc56)c4)no3)(C1)C2 [Example 272] | < 100 | < 100 |
| Cc1ccc(-c2noc([C@H]3C[C@@H]3F)n2)cc1NC(=O)c1cnn2cc(Cl)c(-c3c(C)nn(CC(C)(C)O)c3C)cc12 [Example 165] | 100 to 1000 | > 1000 |
| Cc1ccc(-c2noc([C@H]3C[C@@H]3F)n2)cc1NC(=O)c1cnn2ccc(-c3cnc(C(C)(C)O)nc3)cc12 [Example 158] | < 100 | 100 to 1000 |
| Cc1ccc(-c2ncc(OC(F)(F)F)cn2)cc1NC(=O)c1cnn2ccc(-c3c(C)nc(N)nc3C)cc12 [Example 367] | 100 to 1000 | 100 to 1000 |
| O=C(Nc1cc(-c2noc([C@H]3C[C@@H](OC(F)(F)F)C3)n2)ccc1Cl)c1cnn2ccc(N3CC4(COC4)C3)cc12 [Example 264] | < 100 | < 100 |
| Cc1ccc(-c2noc([C@H]3C[C@@H]3F)n2)cc1NC(=O)c1cnc(-c2ccc(F)c3[nH]ccc23)o1 [Example 308-42] | 100 to 1000 | 100 to 1000 |
| Cc1ncc(-c2nnn(C(C)C)n2)cc1NC(=O)c1cnn2ccc(N3CC4(C3)CC(O)(C(F)F)C4)cc12 [Example 312-6] | < 100 | > 1000 |
| Cc1ccc(-c2noc([C@H]3C[C@H](OC(F)F)C3)n2)cc1NC(=O)c1cnn2ccc(N3CC4(COC4)C3)cc12 [Example 247] | < 100 | < 100 |
| CC(=O)Nc1ncc(C(=O)Nc2cc(-c3noc([C@H]4C[C@@H]4F)n3)ccc2C)s1 [Example 38] | 100 to 1000 | 100 to 1000 |
| Cc1ccc(-c2noc([C@H]3C[C@@H]3F)n2)cc1NC(=O)c1cnn2ccc(N3CC(CO)(CCl)C3)cc12 [Example 182] | < 100 | < 100 |
| Cc1ccc(-c2noc(C3CN(C(=O)OC(C)C)C3)n2)cc1NC(=O)c1cnc(-c2ccc3c(c2)CC(=O)N3)o1 [Example 308-62] | > 1000 | 100 to 1000 |
| Cc1ccc(-c2noc(C3CC4(C3)CC(F)(F)C4)n2)cc1NC(=O)c1cnn2ccc(N3CC4(COC4)C3)cc12 [Example 281-2] | < 100 | < 100 |
| Cc1ccc(-c2noc([C@H]3C[C@@H](OC(F)F)C3)n2)cc1NC(=O)c1cnn2ccc(N3CC4(CCN(CC(F)F)C4)C3)cc12 [Example 248] | < 100 | 100 to 1000 |

| Structure (SMILES) | EC50 (M-07e cells) [nM] | IC50 [1] [nM] |
| --- | --- | --- |
| Cc1ccc(-c2noc([C@H]3C[C@@H]3F)n2)cc1NC(=O)c1cnn2ccc(-c3cn(CCO)nn3)cc12 [Example 110] | < 100 | 100 to 1000 |
| Cc1ccc(-c2noc([C@H]3C[C@@H]3F)n2)cc1NC(=O)c1cnc(-c2cccc3[nH]ncc23)o1 [Example 308-43] | 100 to 1000 | < 100 |
| Cc1ccc(-c2noc([C@H]3C[C@@H]3F)n2)cc1NC(=O)c1cnn(-c2ccccc2)c1C [Example 98] | > 1000 | > 1000 |
| Cc1ccc(-c2noc([C@H]3C[C@@H]3F)n2)cc1NC(=O)c1cnn2ccc(-c3cnc(N4CC5(COC5)C4)cc3C)cc12 [Example 171-25] | < 100 | < 100 |
| Cc1ccc(-c2noc([C@H]3C[C@@H]3F)n2)cc1NC(=O)c1cnc(-c2ccc3cc[nH]c3c2)o1 [Example 295] | 100 to 1000 | < 100 |
| Cc1sc(-c2noc(C3CN(C(=O)[C@H]4C[C@@H]4F)C3)n2)cc1NC(=O)c1cnn2ccc(N3CC4(COC4)C3)cc12 [Example 281-126] | > 1000 | > 1000 |
| Cc1ccc(-c2noc([C@H]3C[C@@H]3F)n2)cc1NC(=O)c1cnc(-c2ccc3[nH]c(=O)[nH]c3c2)o1 [Example 302] | > 1000 | < 100 |
| Cc1ccc(-c2noc(C3CCN(C(=O)[C@H]4C[C@@H]4F)C3)n2)cc1NC(=O)c1cnn2ccc(N3CC4(C3)CC(O)(C(F)F)C4)cc12 (stereo partly drawn) [Example 281-96] | 100 to 1000 | 100 to 1000 |
| Cc1ccc(-c2noc([C@H]3C[C@@H]3F)n2)cc1NC(=O)c1cnn2ccc(N3CCN(CC(F)(F)F)[C@H](C)C3)cc12 [Example 230] | < 100 | < 100 |
| Cc1ccc(-c2noc([C@H]3C[C@@H]3F)n2)cc1NC(=O)c1cnc(-c2ccc(F)c3[nH]ncc23)o1 [Example 308-44] | 100 to 1000 | 100 to 1000 |
| Cc1ccc(-c2noc([C@H]3C[C@@H]3F)n2)cc1NC(=O)c1cnn2ccc(N3CC[C@@H](NC(=O)OC(C)(C)C)C3)cc12 [Example 192] | 100 to 1000 | 100 to 1000 |
| Cc1ccc(-c2noc([C@H]3C[C@@H]3F)n2)cc1NC(=O)c1cnn2ccc(N3CC(F)(C(F)(F)F)C3)cc12 [Example 223] | 100 to 1000 | 100 to 1000 |
| Cc1ccc(-c2noc([C@H]3C[C@@H](OC(F)(F)F)C3)n2)cc1NC(=O)c1cnc(-c2ccc3c(c2)CC(=O)N3)o1 [Example 308-3] | < 100 | < 100 |
| Cc1ccc(-c2noc([C@H]3C[C@@H]3F)n2)cc1NC(=O)c1cnc(-c2ccc(C(C)(C)O)s2)o1 [Example 308] | > 1000 | > 1000 |
| Cc1sc(-c2noc([C@H]3C[C@@H](OC(F)(F)F)C3)n2)cc1NC(=O)c1cnn2ccc(N3CC4(C3)CC(O)(C(F)F)C4)cc12 [Example 281-112] | 100 to 1000 | < 100 |
| COc1cccc(-c2ncc(C(=O)Nc3cc(-c4noc([C@H]5C[C@@H]5F)n4)ccc3C)o2)c1 [Example 283] | < 100 | 100 to 1000 |
| Cc1ccc(-c2ncc(OC(F)(F)F)cn2)cc1NC(=O)c1cnc(-c2ccc3c(c2)CC(=O)N3)o1 [Example 360] | 100 to 1000 | 100 to 1000 |
| Cc1ccc(-c2noc([C@H]3C[C@@H]3F)n2)cc1NC(=O)c1cnn2ccc(NCC3(C(=O)O)COC3)cc12 [Example 241-14] | > 1000 | 100 to 1000 |
| Cc1ccc(-c2ncc(OC(F)(F)F)cn2)cc1NC(=O)c1cnn2ccc(N3CC4(C3)CC(O)(C(F)F)C4)cc12 [Example 315] | < 100 | < 100 |
| Cc1sc(-c2noc(C3(F)CN(C(=O)[C@H]4C[C@@H]4F)C3)n2)cc1NC(=O)c1cnn2ccc(N3CC4(C3)CC(O)(C(F)F)C4)cc12 [Example 281-111] | 100 to 1000 | > 1000 |
| Cc1ccc(-c2noc([C@H]3C[C@@H]3F)n2)cc1NC(=O)c1cnn2ccc(O[C@@H]3CCOC3)cc12 [Example 220] | 100 to 1000 | < 100 |
| Cc1nnc(N2CC(c3nc(-c4cnc(C)c(NC(=O)c5cnn6ccc(N7CC8(C7)CC(O)(C(F)F)C8)cc56)c4)no3)C2)o1 [Example 281-70] | > 1000 | > 1000 |
